What was measured:
[1] = test system: MMP-2; test: Substrate phage display with NGS: relative probability (RP) of P3-P1' tetramer clusters; assay type: biochemical, human; settings: MMP2;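 note: ratio of tetramer probability after protease selection to that in naive phage library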
[2] = target: MMP-9 (Homo sapiens, UniProt P14780); test: K(obs) of individual phage substrates (set of 1369); assay type: biochemical; settings: MMP9
[3] = target: T1, MMP-2 (Homo sapiens, UniProt P08253); test: as above; assay type: biochemical; settings: MMP2
T1 sequence (P08253 110-660): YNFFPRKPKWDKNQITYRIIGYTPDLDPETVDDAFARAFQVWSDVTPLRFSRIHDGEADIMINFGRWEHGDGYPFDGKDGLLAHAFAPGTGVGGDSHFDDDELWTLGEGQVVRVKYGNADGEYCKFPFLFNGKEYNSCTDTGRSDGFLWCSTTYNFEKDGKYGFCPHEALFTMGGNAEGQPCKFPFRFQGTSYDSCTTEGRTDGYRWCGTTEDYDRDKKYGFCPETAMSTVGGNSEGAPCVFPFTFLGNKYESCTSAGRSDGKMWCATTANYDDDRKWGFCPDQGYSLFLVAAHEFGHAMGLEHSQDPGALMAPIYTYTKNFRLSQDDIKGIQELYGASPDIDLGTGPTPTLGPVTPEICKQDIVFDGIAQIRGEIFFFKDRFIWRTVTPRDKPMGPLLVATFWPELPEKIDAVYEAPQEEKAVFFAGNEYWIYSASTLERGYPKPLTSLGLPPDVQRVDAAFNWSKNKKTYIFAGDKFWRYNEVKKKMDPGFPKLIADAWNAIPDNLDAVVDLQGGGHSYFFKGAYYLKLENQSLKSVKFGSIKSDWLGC

[4] = RP of the P3-P1' tetramer contained in the substrate (substrate phage display with NGS)
[5] = individual phage substrates, set of 1369 peptides, hyphen in sequence marks cleavage position
[6] = individual phage substrates, set of 1369 peptides, cleavage position marked by hyphen in sequence
[7] = RP of the P3-P1' tetramer contained in the substrate
[8] = individual phage substrate of the set of 1369 peptides, dash in the sequence marks the cleavage position
[9] = individual phage substrate of the set of 1369 peptides, cleavage position marked by '-'

Chain of MMP-9 (P14780 94-707): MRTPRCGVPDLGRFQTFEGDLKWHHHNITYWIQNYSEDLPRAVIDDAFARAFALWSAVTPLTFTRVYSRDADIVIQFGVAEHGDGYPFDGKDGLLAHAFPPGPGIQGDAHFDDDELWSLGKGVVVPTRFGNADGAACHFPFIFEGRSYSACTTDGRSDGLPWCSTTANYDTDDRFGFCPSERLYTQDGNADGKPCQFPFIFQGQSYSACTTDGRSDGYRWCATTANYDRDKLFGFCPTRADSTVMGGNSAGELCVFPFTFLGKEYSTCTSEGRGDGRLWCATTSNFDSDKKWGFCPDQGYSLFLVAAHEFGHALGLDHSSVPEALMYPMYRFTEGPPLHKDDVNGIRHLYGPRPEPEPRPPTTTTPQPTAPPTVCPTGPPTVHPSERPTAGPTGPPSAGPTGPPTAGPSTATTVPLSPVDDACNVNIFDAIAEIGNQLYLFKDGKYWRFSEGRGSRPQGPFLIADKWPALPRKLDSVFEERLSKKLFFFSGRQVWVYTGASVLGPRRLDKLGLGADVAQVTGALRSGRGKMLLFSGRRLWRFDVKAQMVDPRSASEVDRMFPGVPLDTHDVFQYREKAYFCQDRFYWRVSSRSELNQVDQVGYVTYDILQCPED

Substance	Kobs [2, 5]	Kobs [3, 6]	Kobs [2, 8]	Kobs [3, 9]	relative probability (RP) [1, 4]	relative probability (RP) [1, 7]
RFALN-LTASG	9740.44 M⁻¹ s⁻¹	7015.91 M⁻¹ s⁻¹	–	–	17.2813	–
GVARP-LSTAS	–	–	1610.61 M⁻¹ s⁻¹	5090.5 M⁻¹ s⁻¹	–	27.8706
SGVRY-LYGTA	8941.32 M⁻¹ s⁻¹	3637.04 M⁻¹ s⁻¹	–	–	18.3724	–
WPMAK-LTASG	–	–	451.441 M⁻¹ s⁻¹	12792.1 M⁻¹ s⁻¹	–	21.5229
RQLAA-ITASG	–	–	355.093 M⁻¹ s⁻¹	4205.91 M⁻¹ s⁻¹	–	28.8382
WQYSN-LTASG	323.705 M⁻¹ s⁻¹	3964.21 M⁻¹ s⁻¹	–	–	25.2832	–
SGFAH-LTSTA	171.876 M⁻¹ s⁻¹	4763.33 M⁻¹ s⁻¹	–	–	19.6504	–
YDIHF-LTASG	–	–	0 M⁻¹ s⁻¹	0 M⁻¹ s⁻¹	–	4.537
GVIRF-LRTAS	–	–	9740.44 M⁻¹ s⁻¹	10866.7 M⁻¹ s⁻¹	–	12.1004
GYPRN-IGTAS	–	–	7386.83 M⁻¹ s⁻¹	8941.32 M⁻¹ s⁻¹	–	31.9621
QHWGG-LTASG	386.839 M⁻¹ s⁻¹	12792.1 M⁻¹ s⁻¹	–	–	21.3794	–
SGQRG-IYATA	–	–	3344.37 M⁻¹ s⁻¹	2157.02 M⁻¹ s⁻¹	–	7.484
RDLSH-LTASG	261.974 M⁻¹ s⁻¹	9740.44 M⁻¹ s⁻¹	–	–	29.8814	–
SQVRF-LTASG	–	–	6688.74 M⁻¹ s⁻¹	8321.48 M⁻¹ s⁻¹	–	15.0438
SGPAY-WRTTA	1610.61 M⁻¹ s⁻¹	12792.1 M⁻¹ s⁻¹	–	–	27.2209	–
GAPWG-IHTAS	–	–	12792.1 M⁻¹ s⁻¹	12792.1 M⁻¹ s⁻¹	–	25.1508
GRPAD-LRTAS	–	–	12792.1 M⁻¹ s⁻¹	12792.1 M⁻¹ s⁻¹	–	30.0217
TVLNS-LTASG	0 M⁻¹ s⁻¹	3438.54 M⁻¹ s⁻¹	–	–	18.3633	–
ARPEF-LTASG	–	–	7015.91 M⁻¹ s⁻¹	8941.32 M⁻¹ s⁻¹	–	12.0159
RLPVA-ITASG	–	–	12792.1 M⁻¹ s⁻¹	12792.1 M⁻¹ s⁻¹	–	32.4892
SGAHG-ILSTA	–	–	3536.02 M⁻¹ s⁻¹	2996.69 M⁻¹ s⁻¹	–	8.881
SGVMG-IRITA	–	–	1418.96 M⁻¹ s⁻¹	484.315 M⁻¹ s⁻¹	–	12.4242
VMVWN-ITASG	8321.48 M⁻¹ s⁻¹	2761.81 M⁻¹ s⁻¹	–	–	4.0144	–

Substance	Kobs [2, 5]	Kobs [3, 6]	Kobs [2, 8]	Kobs [3, 9]	relative probability (RP) [1, 4]	relative probability (RP) [1, 7]
SGPQS-WRTTA	3165.09 M⁻¹ s⁻¹	7815.03 M⁻¹ s⁻¹	–	–	25.7009	–
SGPMR-LVTTA	4205.91 M⁻¹ s⁻¹	1870.4 M⁻¹ s⁻¹	–	–	20.4124	–
ATPES-LTASG	–	–	6131.32 M⁻¹ s⁻¹	8941.32 M⁻¹ s⁻¹	–	26.0767
IGPQF-LTASG	–	–	12792.1 M⁻¹ s⁻¹	12792.1 M⁻¹ s⁻¹	–	26.3159
SLPRP-LTASG	10866.7 M⁻¹ s⁻¹	6396.07 M⁻¹ s⁻¹	–	–	34.3303	–
GTALP-LRTAS	–	–	3253.29 M⁻¹ s⁻¹	6396.07 M⁻¹ s⁻¹	–	22.1772
RQWYG-ITASG	–	–	4922.1 M⁻¹ s⁻¹	142.481 M⁻¹ s⁻¹	–	0.0533
GSAVG-LRTAS	–	–	5667.28 M⁻¹ s⁻¹	12792.1 M⁻¹ s⁻¹	–	28.9998
SGPLG-ITLTA	12792.1 M⁻¹ s⁻¹	12792.1 M⁻¹ s⁻¹	–	–	33.936	–
SGPLG-IRYTA	–	–	7815.03 M⁻¹ s⁻¹	9740.44 M⁻¹ s⁻¹	–	33.936
GSPMH-LITAS	9740.44 M⁻¹ s⁻¹	6688.74 M⁻¹ s⁻¹	–	–	30.095	–
DPWRA-LTASG	–	–	6396.07 M⁻¹ s⁻¹	6396.07 M⁻¹ s⁻¹	–	22.4074
SGPVH-LLNTA	–	–	2280.5 M⁻¹ s⁻¹	3344.37 M⁻¹ s⁻¹	–	32.2352
GIVGM-LQTAS	–	–	323.705 M⁻¹ s⁻¹	4613.14 M⁻¹ s⁻¹	–	28.5913
ELSLA-LTASG	–	–	1112.44 M⁻¹ s⁻¹	1925.41 M⁻¹ s⁻¹	–	6.019
QAPMG-LTASG	–	–	9740.44 M⁻¹ s⁻¹	3438.54 M⁻¹ s⁻¹	–	34.7865
VPWGN-LTASG	0 M⁻¹ s⁻¹	5461.43 M⁻¹ s⁻¹	–	–	14.7295	–
FMPSA-QTASG	–	–	9740.44 M⁻¹ s⁻¹	10866.7 M⁻¹ s⁻¹	–	28.0379
SGVRH-LINTA	–	–	8321.48 M⁻¹ s⁻¹	1763.55 M⁻¹ s⁻¹	–	25.4239
GNAIH-LQTAS	–	–	0 M⁻¹ s⁻¹	1196.62 M⁻¹ s⁻¹	–	13.4941
RLPWS-LTASG	–	–	12792.1 M⁻¹ s⁻¹	5667.28 M⁻¹ s⁻¹	–	28.5684
RNGLA-LTASG	0 M⁻¹ s⁻¹	0 M⁻¹ s⁻¹	–	–	0.6848	–
SLVLN-MTASG	4613.14 M⁻¹ s⁻¹	3438.54 M⁻¹ s⁻¹	–	–	19.025	–

The next lines start with results.

Kobs [2, 5]	Kobs [3, 6]	Kobs [2, 8]	Kobs [3, 9]	Substance	relative probability (RP) [1, 4]	relative probability (RP) [1, 7]
0 M⁻¹ s⁻¹	0 M⁻¹ s⁻¹	–	–	RLYMN-ITASG	0	–
2409.72 M⁻¹ s⁻¹	4205.91 M⁻¹ s⁻¹	–	–	RYAQP-LTASG	14.4283	–
12792.1 M⁻¹ s⁻¹	10866.7 M⁻¹ s⁻¹	–	–	GFPQS-LMTAS	33.5105	–
1327.88 M⁻¹ s⁻¹	654.784 M⁻¹ s⁻¹	–	–	GCPHM-MTASG	14.968	–
6688.74 M⁻¹ s⁻¹	7386.83 M⁻¹ s⁻¹	–	–	SGPSG-MRVTA	32.7604	–
84.609 M⁻¹ s⁻¹	836.403 M⁻¹ s⁻¹	–	–	GSGAA-LTMPT	15.7207	–
12792.1 M⁻¹ s⁻¹	12792.1 M⁻¹ s⁻¹	–	–	SQPTG-LTASG	33.1098	–
27.918 M⁻¹ s⁻¹	292.668 M⁻¹ s⁻¹	–	–	SGYRS-LTLTA	1.506	–
–	–	0 M⁻¹ s⁻¹	5667.28 M⁻¹ s⁻¹	GRLGN-LWTAS	–	33.3542
7015.91 M⁻¹ s⁻¹	762.325 M⁻¹ s⁻¹	–	–	IEAWS-LTASG	7.006	–
0 M⁻¹ s⁻¹	0 M⁻¹ s⁻¹	–	–	FSQLA-MTASG	5.241	–
–	–	690.17 M⁻¹ s⁻¹	484.315 M⁻¹ s⁻¹	GYARL-LRTAS	–	1.104
1465.65 M⁻¹ s⁻¹	12792.1 M⁻¹ s⁻¹	–	–	GRAAW-LQTAS	28.6088	–
10866.7 M⁻¹ s⁻¹	12792.1 M⁻¹ s⁻¹	–	–	TGVSW-LTASG	30.6564	–
0 M⁻¹ s⁻¹	1610.61 M⁻¹ s⁻¹	–	–	HNANY-LTASG	3.901	–
–	–	1030.73 M⁻¹ s⁻¹	12792.1 M⁻¹ s⁻¹	VHFAS-LTASG	–	15.5827
10866.7 M⁻¹ s⁻¹	4470.66 M⁻¹ s⁻¹	–	–	KSPLG-LTASG	35.3536	–
0 M⁻¹ s⁻¹	5667.28 M⁻¹ s⁻¹	–	–	SGYAS-MVATA	24.1553	–
0 M⁻¹ s⁻¹	0 M⁻¹ s⁻¹	–	–	GQVDY-LMTAS	1.426	–
–	–	2545.25 M⁻¹ s⁻¹	5667.28 M⁻¹ s⁻¹	SFPNP-LTASG	–	23.6266
–	–	5461.43 M⁻¹ s⁻¹	5461.43 M⁻¹ s⁻¹	NVPVW-MTASG	–	25.8126
–	–	619.843 M⁻¹ s⁻¹	355.093 M⁻¹ s⁻¹	PKWHG-LTASG	–	0.5588
–	–	1071.29 M⁻¹ s⁻¹	1870.4 M⁻¹ s⁻¹	SGGSG-LWATP	–	1.9698

Reference: article PMC7932537, “Quantitative profiling of protease specificity” (PLoS Computational Biology, 2021)
